According to ChEMBL document CHEMBL1138381, “Synthesis and anticonvulsant activity of sulfonamide derivatives-hydrophobic domain” (Bioorg Med Chem Lett, 2007):
Calls of active or inactive are those of the source. No cut-off for these calls is given here.

Assays:
Mus musculus [1] = test: Anticonvulsant activity against maximal electroshock-induced seizure in Albino mouse at 300 mg/kg, ip after 0.5 hrs; format: functional, organism-based; design: dose 300 mg/kg
Mus musculus [2] = test: Neurotoxicity in Albino mouse at 300 mg/kg, ip after 4 hrs by rotarod test; format: toxicity, organism-based; design: dose 300 mg/kg, route intraperitoneal; conditions: in vivo
Mus musculus [3] = test: Anticonvulsant activity against pentylenetetrazole-induced seizures in Albino mouse at 300 mg/kg, ip after 4 hrs; format: functional, organism-based; design: dose 300 mg/kg
Mus musculus [4] = test: Neurotoxicity in Albino mouse at 300 mg/kg, ip after 0.5 hrs by rotarod test; format: toxicity, organism-based; design: dose 300 mg/kg, route intraperitoneal; conditions: in vivo
Mus musculus [5] = test: Anticonvulsant activity against pentylenetetrazole-induced seizures in Albino mouse at 300 mg/kg, ip after 0.5 hrs; format: functional, organism-based; design: dose 300 mg/kg
Mus musculus [6] = test: Anticonvulsant activity against maximal electroshock-induced seizure in Albino mouse at 300 mg/kg, ip after 4 hrs; format: functional, organism-based; design: dose 300 mg/kg
Mus musculus [7] = test: Anticonvulsant activity against maximal electroshock-induced seizure in Albino mouse at 30 mg/kg, ip after 0.5 hrs; format: functional, organism-based; design: dose 30 mg/kg
Mus musculus [8] = test: Anticonvulsant activity against pentylenetetrazole-induced seizures in Albino mouse at 100 mg/kg, ip after 0.5 hrs; format: functional, organism-based; design: dose 100 mg/kg
Mus musculus [9] = test: Neurotoxicity in Albino mouse at 100 mg/kg, ip after 0.5 hrs by rotarod test; format: toxicity, organism-based; design: dose 100 mg/kg, route intraperitoneal; conditions: in vivo
Mus musculus [10] = test: Anticonvulsant activity against maximal electroshock-induced seizure in Albino mouse at 100 mg/kg, ip after 0.5 hrs; format: organism-based; design: dose 100 mg/kg, route intraperitoneal; conditions: in vivo
Mus musculus [11] = test: Anticonvulsant activity against maximal electroshock-induced seizure in Albino mouse at 30 mg/kg, ip after 4 hrs; format: functional, organism-based; design: dose 30 mg/kg
Rattus norvegicus [12] = test: Anticonvulsant activity against maximal electroshock-induced seizure in rat at 30 mg/kg, po after 1 hr; format: functional, organism-based; design: dose 30 mg/kg
Rattus norvegicus [13] = test: Anticonvulsant activity against maximal electroshock-induced seizure in rat at 30 mg/kg, po after 0.5 hrs; format: functional, organism-based; design: dose 30 mg/kg
Rattus norvegicus [14] = test: Anticonvulsant activity against maximal electroshock-induced seizure in rat at 30 mg/kg, po after 0.25 hrs; format: functional, organism-based; design: dose 30 mg/kg
Rattus norvegicus [15] = test: Toxicity in rat at 30 mg/kg upto 4 hrs; format: organism-based; design: dose 30 mg/kg; conditions: in vivo
Rattus norvegicus [16] = test: Anticonvulsant activity against maximal electroshock-induced seizure in rat at 30 mg/kg, po upto 4 hrs; format: functional, organism-based; design: dose 30 mg/kg
Mus musculus [17] = test: Anticonvulsant activity against maximal electroshock-induced seizure in Albino mouse at 100 mg/kg, ip after 4 hrs; format: organism-based; design: dose 100 mg/kg, route intraperitoneal; conditions: in vivo
Mus musculus [18] = test: Neurotoxicity in Albino mouse at 100 mg/kg, ip after 4 hrs by rotarod test; format: toxicity, organism-based; design: dose 100 mg/kg, route intraperitoneal; conditions: in vivo

SMILES	Activity (Mus musculus [1])	Activity (Mus musculus [2])	Activity (Mus musculus [3])	Activity (Mus musculus [4])	Activity (Mus musculus [5])	Activity (Mus musculus [6])	Activity (Mus musculus [7])	Activity (Mus musculus [8])	Activity (Mus musculus [9])	Activity (Mus musculus [10])	Activity (Mus musculus [11])	Activity (Rattus norvegicus [12])	Activity (Rattus norvegicus [13])	Activity (Rattus norvegicus [14])	Activity (Rattus norvegicus [15])	Activity (Rattus norvegicus [16])	Activity (Mus musculus [17])	Activity (Mus musculus [18])
CCNC(=S)Nc1ccc(S(=O)(=O)Nc2nc3ccc(OC)cc3s2)cc1	inactive	Non-toxic	inactive	Non-toxic	inactive	inactive												
CCCC(CCC)C(=O)O [VALPROIC ACID]	inactive	Non-toxic	inactive	Non-toxic	Active	inactive												
CCNC(=S)Nc1ccc(S(=O)(=O)Nc2nc3ccc(F)cc3s2)cc1	Active	Non-toxic	inactive	Non-toxic	Active	inactive												
NC(=O)N1c2ccccc2C=Cc2ccccc21 [CARBAMAZEPINE]		Toxic	inactive			inactive	Active	Active	Toxic									
Cc1ccc(NC(=S)Nc2ccc(S(=O)(=O)Nc3ccc(Cl)cc3)cc2)cc1		Toxic		Toxic	Active	Active				Active								
CNC(=S)Nc1ccc(S(=O)(=O)Nc2nc3ccc(F)cc3s2)cc1	Active	Non-toxic	inactive	Non-toxic	inactive	inactive												
CCNC(=S)Nc1ccc(S(=O)(=O)Nc2nc3ccc(Cl)cc3s2)cc1	inactive	Toxic	Active	Non-toxic	inactive						Active	inactive	inactive	inactive	Non-toxic	Active		
CNC(=S)Nc1ccc(S(=O)(=O)Nc2nc3ccc(OC)cc3s2)cc1	Active	Non-toxic	inactive	Non-toxic	inactive	inactive												
CNC(=S)Nc1ccc(S(=O)(=O)Nc2nc3ccc(Cl)cc3s2)cc1	inactive	Toxic	Active	Non-toxic	inactive										Non-toxic	Active	Active	
Cc1ccc(NC(=S)Nc2ccc(S(=O)(=O)Nc3ccc(Br)cc3)cc2)cc1		Toxic	inactive	Toxic	Active	Active				Active								
O=C1NC(=O)C(c2ccccc2)(c2ccccc2)N1 [PHENYTOIN]			inactive		inactive		Active		Toxic		Active		Active					Toxic
CNC(=S)Nc1ccc(S(=O)(=O)Nc2ccc(Br)cc2)cc1	Active	Non-toxic	inactive	Toxic	Active													
CCC1(C)CC(=O)NC1=O (stereo not given) [ETHOSUXIMIDE]	inactive	Non-toxic	inactive	Non-toxic	Active	inactive												
CNC(=S)Nc1ccc(S(=O)(=O)Nc2ccc(Cl)cc2)cc1	Active	Toxic		Toxic	Active	Active												
Cc1ccc(NC(=S)Nc2ccc(S(=O)(=O)Nc3ccc(C)cc3)cc2)cc1	Active	Non-toxic	inactive	Toxic	Active	Active												
